# Experimental data: ChEMBL document CHEMBL1201862, “PubChem BioAssay data set” (2004)
#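 Five compound concentrations were applied to cells in 96-well plates for 48 hours; endpoints were derived by simple linear interpolation of the resulting dose-response curve. Here, GI50 denotes the concentration required for 50% inhibition of growth.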 Active and inactive are the calls of the source. No stated cut-off is given here; in the data, active = GI50 up to about 1.1 µM and inactive = higher.
# Experiments:
# Experiment in all cases: NCI anticancer screen, dose series, 48 h
# SR = system: SR
# UACC-62 = system: UACC-62
# KM-20L2 = system: KM-20L2
# SNB-78 = system: SNB-78
# OVCAR-5 = system: OVCAR-5
# MOLT-4 = system: MOLT-4
# ACHN = system: ACHN
# CAKI-1 = system: CAKI-1
# NCI-H522 = system: NCI-H522
# NCI-H460 = system: NCI-H460
# OVCAR-3 = system: OVCAR-3
# OVCAR-8 = system: OVCAR-8
# OVCAR-4 = system: OVCAR-4
# 786-0 = system: 786-0
# COLO 205 = system: COLO 205
# Malme-3M = system: Malme-3M
# SN12C = system: SN12C
# M14 = system: M14
# SNB-75 = system: SNB-75
# RPMI-8226 = system: RPMI-8226
# HOP-92 = system: HOP-92
# HT-29 = system: HT-29
# SF-539 = system: SF-539
# DMS-114 = system: DMS-114
# TK-10 = system: TK-10
# HOP-18 = system: HOP-18
# NCI-H226 = system: NCI-H226
# KM12 = system: KM12
# HCT-15 = system: HCT-15
# SK-MEL-2 = system: SK-MEL-2
# CCRF-CEM = system: CCRF-CEM
# K562 = system: K562
# UO-31 = system: UO-31
# SF-268 = system: SF-268
# DLD-1 = system: DLD-1
# M19-MEL = system: M19-MEL
# LXFL 529 = system: LXFL 529
# HOP-62 = system: HOP-62
# LOX IMVI = system: LOX IMVI
# SW-620 = system: SW-620
# HL-60 = system: HL-60
# U-251 = system: U-251
# IGROV-1 = system: IGROV-1
# SK-MEL-5 = system: SK-MEL-5
# SF-295 = system: SF-295
# SK-OV-3 = system: SK-OV-3
# DMS-273 = system: DMS-273
# SK-MEL-28 = system: SK-MEL-28
# NCI-H23 = system: NCI-H23
# HCT-116 = system: HCT-116
# RXF 393 = system: RXF 393
# A549 = system: A549
# UACC-257 = system: UACC-257
smiles,measurement,setting,value
CC(=O)Nc1ccc(-c2nnc(SCC(=O)Nc3ccccc3[N+](=O)[O-])o2)cc1,GI50,SR,40.7 µM (inactive)
same,GI50,UACC-62,> 100 µM (inactive)
same,GI50,KM-20L2,> 100 µM (inactive)
same,GI50,SNB-78,> 100 µM (inactive)
same,GI50,OVCAR-5,> 100 µM (inactive)
same,GI50,MOLT-4,71.4 µM (inactive)
same,GI50,ACHN,> 100 µM (inactive)
same,GI50,CAKI-1,> 100 µM (inactive)
same,GI50,NCI-H522,45.9 µM (inactive)
same,GI50,NCI-H460,> 100 µM (inactive)
same,GI50,OVCAR-3,34.4 µM (inactive)
same,GI50,OVCAR-8,> 100 µM (inactive)
same,GI50,OVCAR-4,73.1 µM (inactive)
same,GI50,786-0,> 100 µM (inactive)
same,GI50,COLO 205,> 100 µM (inactive)
same,GI50,Malme-3M,> 100 µM (inactive)
same,GI50,SN12C,> 100 µM (inactive)
same,GI50,M14,> 100 µM (inactive)
same,GI50,SNB-75,92.7 µM (inactive)
same,GI50,RPMI-8226,> 100 µM (inactive)
same,GI50,HOP-92,> 100 µM (inactive)
same,GI50,HT-29,> 100 µM (inactive)
same,GI50,SF-539,34.6 µM (inactive)
same,GI50,DMS-114,27.9 µM (inactive)
same,GI50,TK-10,> 100 µM (inactive)
same,GI50,HOP-18,> 100 µM (inactive)
same,GI50,NCI-H226,> 100 µM (inactive)
same,GI50,KM12,> 100 µM (inactive)
same,GI50,HCT-15,> 100 µM
same,GI50,SK-MEL-2,> 100 µM (inactive)
same,GI50,CCRF-CEM,> 100 µM (inactive)
same,GI50,K562,93.1 µM (inactive)
same,GI50,UO-31,81.3 µM (inactive)
same,GI50,SF-268,> 100 µM (inactive)
same,GI50,DLD-1,> 100 µM (inactive)
same,GI50,M19-MEL,> 100 µM (inactive)
same,GI50,LXFL 529,29.9 µM (inactive)
same,GI50,HOP-62,> 100 µM (inactive)
same,GI50,LOX IMVI,> 100 µM (inactive)
same,GI50,SW-620,> 100 µM (inactive)
same,GI50,HL-60,52 µM (inactive)
same,GI50,U-251,> 100 µM (inactive)
same,GI50,IGROV-1,> 100 µM (inactive)
same,GI50,SK-MEL-5,> 100 µM (inactive)
same,GI50,SF-295,98.6 µM (inactive)
same,GI50,SK-OV-3,> 100 µM (inactive)
same,GI50,DMS-273,> 100 µM (inactive)
same,GI50,SK-MEL-28,> 100 µM (inactive)
same,GI50,NCI-H23,> 100 µM (inactive)
same,GI50,HCT-116,> 100 µM (inactive)
same,GI50,RXF 393,> 100 µM (inactive)
same,GI50,A549,> 100 µM (inactive)
same,GI50,UACC-257,> 100 µM (inactive)
